Laboratory results published in US20250290117A1, “MOLECULAR PHENOTYPIC ANTIMICROBIAL SUSCEPTIBILITY TESTING” (priority 2024, published 2025).

Key:
E. coli = assay: Molecular phenotypic antimicrobial susceptibility test, specimen with two detected pathogens incubated together without isolation; type: cell-based, Escherichia coli; details: E. coli in specimen with two detected pathogens (E. coli and M. morganii) incubated together; for Ct of Sensitive Breakpoint: Ct of controls (average) 15.93; for Molecular Antimicrobial Susceptibility Result: at sensitive breakpoint
Outline: (§1)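 Specimen in boric acid; pathogens identified by PCR while a parallel aliquot grew 4-6 h in liquid medium. With >10,000 cells/mL detected, culture diluted to 0.5 McFarland and exposed to antimicrobials in broth (e.g. Mueller Hinton) at breakpoint concentrations; both pathogens incubated together unisolated, growth read by molecular methods against medium-only wells.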

M. morganii = assay: as above; type: cell-based, Morganella morganii; details: M. morganii in specimen with two detected pathogens (E. coli and M. morganii) incubated together; for Ct of Sensitive Breakpoint: Ct of controls (average) 19.99; for Molecular Antimicrobial Susceptibility Result: at sensitive breakpoint
Outline: as §1

S. aureus = assay: Molecular phenotypic antimicrobial susceptibility test with direct PCR (no extraction DNA purification step); type: cell-based, Staphylococcus aureus; details: for Ct at Sensitive Breakpoint: S. aureus isolate NR-46412 HIP13170, Ct at control (average) 18.824; for Molecular Antimicrobial Susceptibility Result: S. aureus isolate NR-46412 HIP13170, at sensitive breakpoint
Procedure: Detection of Molecular Phenotypic Antimicrobial Susceptibility. Disclosed herein are the methods for the detection of phenotypic antimicrobial susceptibility via molecular methods. The present invention describes how a specimen 100 with a known microbial load is incubated and then exposed to a panel of antimicrobial agents to determine sensitivity (prevention of growth) or resistance (allowance of growth) to the specific antimicrobial agents tested utilizing molecular methods.
Sample Collection. Specimens 100 are collected from patients using sterile collection processes that are employed in routine clinical care. Specimens are transported to the testing facility in boric acid preservative.
Preparation of the Specimens for Testing. […] The process for pathogen isolation includes steps of harvesting the pathogen (e.g., via centrifugation), isolating pathogen DNA via a DNA isolation and/or purification kit, and performing PCR on the pathogen DNA via PCR components (e.g., primers, enzymes, buffers) as would be known to the skilled artisan. […] This aliquot is used for antimicrobial susceptibility testing if indicated based on the pathogen detection results. […] Specimens 100 with lower pathogen loads could also be utilized in the antibiotic susceptibility phase of testing with or without a longer incubation period.
Preparation of Antimicrobial Susceptibility Testing Plates. Antimicrobial solutions are prepared at known concentrations. The specific antimicrobials and their concentrations are selected based on the pathogen of interest and the described antimicrobial resistance breakpoints for that specimen pathogen and antimicrobial combination. These antimicrobials have been selected based on those commonly utilized by healthcare providers in routine clinical care for the specific type of suspected infection. The number and types of antimicrobials utilized can be customized based on the infection source, pathogen detected, patient-specific factors such as allergies or other health conditions (e.g., chronic kidney disease or concurrent medication use), or healthcare provider preferences such as antimicrobial availability or cost.
The antimicrobial solutions are prepared in liquid culture media (such as Muller Hinton Broth) to achieve the desired antimicrobial concentration and are then stored at −80° C. until use. For a given specimen, each antimicrobial is tested at a single or multiple antimicrobial concentration(s) which is its established breakpoints for sensitivity. The antimicrobial solutions are prepared and plated out for each specific pathogen. […] This allows for evaluation of pathogen load when no antimicrobial is present.
Specimen Exposure to Antimicrobial Agents. The 1 mL aliquot of the specimen 100 previously mixed with culture media and incubated is obtained. Using optical density measurements as a guide, the specimen 100 is diluted to 0.5 McFarland.
Antimicrobial exposure plates are typically placed into an incubator for 12-16 hours.
Nucleic Acid Amplification of Antimicrobial Agent Exposed Pathogens. The antimicrobial exposure plate is removed after the period of incubation. The specimen then undergoes a purification or lysis step. For example, the specimen may undergo a purification step (e.g., magnetic bead-based or other separation protocol to isolate genetic material). In another example, the specimen may undergo a cell lysis step. For example, buffer (e.g., lysis buffer) may be added and incubated in the thermal cycler for preparation for direct PCR. Next, the specimen may undergo a polymerase chain reaction (PCR) testing protocol, whereby a semi-quantitative PCR method is utilized. This may be completed either with or without a specific extraction protocol step. The pathogens can be individually targeted and detected, or a universal genetic sequence can be utilized to detect the antimicrobial susceptibility of the specimen as a whole.

[1] = test system: pathogens of clinical samples; assay: Molecular phenotypic antimicrobial susceptibility test of clinical samples, extraction DNA purification step prior to PCR (Table 6); type: cell-based
Outline: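 Patient specimens in boric acid were grown in culture medium, adjusted to 0.5 McFarland by optical density, then incubated 12-16 hours with antimicrobials in Mueller Hinton Broth at breakpoint concentrations. Growth was read by semi-quantitative PCR, alongside a no-antimicrobial well for pathogen load.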

[2] = E. coli, clinical sample of r10-r24
[3] = E. coli, clinical sample of r10-r24, Ct Control Avg 18.112
[4] = E. coli, clinical sample of r158-r172
[5] = E. coli, clinical sample of r158-r172, Ct Control Avg 20.146
[6] = E. faecalis, clinical sample of r93-r99
[7] = E. faecalis, clinical sample of r93-r99, Ct Control Avg 22.987
[8] = E. faecalis, clinical sample of r100-r106, Ct Control Avg 23.073
[9] = E. faecalis, clinical sample of r107-r113, Ct Control Avg 22.144
[10] = E. faecalis, clinical sample of r114-r120
[11] = E. faecalis, clinical sample of r114-r120, Ct Control Avg 20.822
[12] = K. aerogenes, clinical sample of r136-r150
[13] = K. aerogenes, clinical sample of r136-r150, Ct Control Avg 19.994
[14] = K. pneumoniae, clinical sample of r121-r135
[15] = K. pneumoniae, clinical sample of r121-r135, Ct Control Avg 24.272
[16] = M. morganii, clinical sample of r55-r69
[17] = M. morganii, clinical sample of r70-r84
[18] = P. mirabilis, clinical sample of r25-r39
[19] = P. mirabilis, clinical sample of r25-r39, Ct Control Avg 26.064
[20] = P. mirabilis, clinical sample of r40-r54
[21] = P. mirabilis, clinical sample of r40-r54, Ct Control Avg 26.987
[22] = S. aureus, clinical sample of r85-r92
[23] = S. aureus, clinical sample of r85-r92, Ct Control Avg 24.32

| Structure (SMILES) | Ct of Sensitive Breakpoint (E. coli) | Molecular Antimicrobial Susceptibility Result (E. coli) | Ct of Sensitive Breakpoint (M. morganii) | Molecular Antimicrobial Susceptibility Result (M. morganii) | Ct at Sensitive Breakpoint (S. aureus) | Molecular Antimicrobial Susceptibility Result (S. aureus) | Molecular Antibiotic Susceptibility Result [1, 2] | Ct [1, 3] | Molecular Antibiotic Susceptibility Result [1, 4] | Ct [1, 5] | Molecular Antibiotic Susceptibility Result [1, 6] | Ct [1, 7] | Ct [1, 8] | Ct [1, 9] | Molecular Antibiotic Susceptibility Result [1, 10] | Ct [1, 11] | Molecular Antibiotic Susceptibility Result [1, 12] | Ct [1, 13] | Molecular Antibiotic Susceptibility Result [1, 14] | Ct [1, 15] | further results |
| --- | --- | --- | --- | --- | --- | --- | --- | --- | --- | --- | --- | --- | --- | --- | --- | --- | --- | --- | --- | --- | --- |
| O=C1CN(/N=C/c2ccc([N+](=O)[O-])o2)C(=O)N1 [Nitrofurantoin] | 27.36 | Sensitive (Antimicrobial wells with pathogen load detected below the control wells (typically >2 cycle thresholds later) may be reported as Sensitive) | 33.37 | Sensitive (Antimicrobial wells with pathogen load detected below the control wells (typically >2 cycle thresholds later) may be reported as Sensitive) | 31.922 | Sensitive (Antimicrobial wells with pathogen load detected below the control wells (typically >2 cycle thresholds later) may be reported as Sensitive) | Sensitive (Antimicrobial wells with pathogen load detected below the control wells (typically >2 cycle thresholds later) may be reported as Sensitive) | 29.981 | Sensitive (Antimicrobial wells with pathogen load detected below the control wells (typically >2 cycle thresholds later) may be reported as Sensitive) | 34.794 | Sensitive (Antimicrobial wells with pathogen load detected below the control wells (typically >2 cycle thresholds later) may be reported as Sensitive) | 38.744 | 37.449 | 32.584 | Sensitive (Antimicrobial wells with pathogen load detected below the control wells (typically >2 cycle thresholds later) may be reported as Sensitive) | 34.318 | Sensitive (Antimicrobial wells with pathogen load detected below the control wells (typically >2 cycle thresholds later) may be reported as Sensitive) | 38.755 | Sensitive (Antimicrobial wells with pathogen load detected below the control wells (typically >2 cycle thresholds later) may be reported as Sensitive) | 33.13 | Molecular Antibiotic Susceptibility Result ([1]; E. faecalis, clinical sample of r151-r157): Sensitive (Antimicrobial wells with pathogen load detected below the control wells (typically >2 cycle thresholds later) may be reported as Sensitive); Molecular Antibiotic Susceptibility Result [1, 16]: Sensitive (Antimicrobial wells with pathogen load detected below the control wells (typically >2 cycle thresholds later) may be reported as Sensitive); Molecular Antibiotic Susceptibility Result [1, 17]: Sensitive (Antimicrobial wells with pathogen load detected below the control wells (typically >2 cycle thresholds later) may be reported as Sensitive); Molecular Antibiotic Susceptibility Result [1, 18]: Resistant; Ct [1, 19]: 22.903; Molecular Antibiotic Susceptibility Result [1, 20]: Resistant; Ct [1, 21]: 23.887; Molecular Antibiotic Susceptibility Result [1, 22]: Sensitive (Antimicrobial wells with pathogen load detected below the control wells (typically >2 cycle thresholds later) may be reported as Sensitive); Ct [1, 23]: 30.822 |
| CN(C)[C@@H]1C(O)=C(C(N)=O)C(=O)[C@@]2(O)C(O)=C3C(=O)c4c(O)cccc4[C@@](C)(O)[C@H]3C[C@@H]12 [Tetracycline] | 14.55 | Resistant | 31.64 | Sensitive (Antimicrobial wells with pathogen load detected below the control wells (typically >2 cycle thresholds later) may be reported as Sensitive) | 18.43 | Resistant | Sensitive (Antimicrobial wells with pathogen load detected below the control wells (typically >2 cycle thresholds later) may be reported as Sensitive) | 28.574 | Sensitive (Antimicrobial wells with pathogen load detected below the control wells (typically >2 cycle thresholds later) may be reported as Sensitive) | 34.28 | Resistant | 19.484 | 23.171 | 28.949 | Resistant | 21.77 | Sensitive (Antimicrobial wells with pathogen load detected below the control wells (typically >2 cycle thresholds later) may be reported as Sensitive) | 37.04 | Sensitive (Antimicrobial wells with pathogen load detected below the control wells (typically >2 cycle thresholds later) may be reported as Sensitive) | 30.426 | Molecular Antibiotic Susceptibility Result ([1]; E. faecalis, clinical sample of r100-r106): Resistant; Ct ([1]; E. faecalis, clinical sample of r151-r157, Ct Control Avg 20.56): 23.723; Molecular Antibiotic Susceptibility Result [1, 16]: Resistant; Ct ([1]; M. morganii, clinical sample of r55-r69, Ct Control Avg 28.86): 26.617; Molecular Antibiotic Susceptibility Result [1, 17]: Sensitive (Antimicrobial wells with pathogen load detected below the control wells (typically >2 cycle thresholds later) may be reported as Sensitive); Molecular Antibiotic Susceptibility Result [1, 18]: Resistant; Ct [1, 19]: 24.94; Molecular Antibiotic Susceptibility Result [1, 20]: Resistant; Ct [1, 21]: 23.424; Molecular Antibiotic Susceptibility Result [1, 22]: Resistant; Ct [1, 23]: 15.029 |
